Test results: patent publication US6737383B1, “Herbicidal oxadiazolidines” (priority 1999, dated 2004)

Experiments:
[1] = test system: blackgrass; assay: Test E blackgrass; assay type: in vivo, Alopecurus myosuroides; settings: Postemergence
Procedure, shortened: (§1)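 Compound formulated with surfactant in a non-phytotoxic solvent (postemergence: young 1- to 4-leaf plants); held in greenhouse approx. 21–28 days; visual assessment against untreated plants.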

[2] = test system: deadnettle; assay: Test E deadnettle; assay type: in vivo, Lamium amplexicaule; settings: Postemergence
Procedure, shortened: as §1

[3] = test system: field violet; assay: Test E field violet; assay type: in vivo, Viola arvensis; settings: Postemergence
Procedure, shortened: as §1

[4] = test system: spring wheat; assay: Test E spring wheat; assay type: in vivo, Triticum aestivum; settings: Postemergence
Method: Compounds evaluated in this test were formulated in a non-phytotoxic solvent mixture which included a surfactant and applied to plants that were in the 1- to 4-leaf stage (postemergence application). A mixture of sandy loam soil and greenhouse potting mix in a 60:40 ratio was used for the postemergence test.
Plantings of these crops and weed species were adjusted to produce plants of appropriate size for the postemergence test. All plant species were grown using normal greenhouse practices. Crop and weed species include annual bluegrass (Poa annua), blackgrass (Alopecurus myosuroides), black nightshade (Solanum nigra), chickweed (Stellaria media), common poppy (Papaver rhoeas), deadnettle (Lamium amplexicaule), downy brome (Bromus tectorum), field violet (Viola arvensis), galium (Galium aparine), green foxtail (Setaria viridis), Italian ryegrass (Lolium multiflorum), jointed goatgrass (Aegilops cylindrica), kochia (Kochia scoparia), lambsquarters (Chenopodium album), littleseed canarygrass (Phalaris minor), rape (Brassica napus), redroot pigweed (Amaranthus retroflexus), Russian thistle (Salsola kali), scentless chamomile (Matricaria inodora), spring barley (Hordeum vulgare), sugar beet (Beta vulgaris), sunflower (Helianthus annuus), ivyleaf speedwell (Veronica hederaefolia), spring wheat (Triticum aestivum), winter wheat (Triticum aestivum), wild buckwheat (Polygonum convolvulus), wild mustard (Sinapis arvensis), wild oat (Avena fatua), windgrass (Apera spica-venti) and winter barley (Hordeum vulgare).
Treated plants and untreated controls were maintained in a greenhouse for approximately 21 to 28 days, after which all treated plants were compared to untreated controls and visually evaluated. […] A dash response (-) means no test result.

[5] = test system: black nightshade; assay: Test E black nightshade; assay type: in vivo, Solanum nigra; settings: Preemergence
[6] = test system: rape; assay: Test E rape; assay type: in vivo, Brassica napus; settings: Preemergence
[7] = test system: sugar beet; assay: Test E sugar beet; assay type: in vivo, Beta vulgaris; settings: Preemergence
[8] = test system: eastern black nightshade; assay: Test C postemergence eastern black nightshade; assay type: in vivo, Solanum ptycanthum; settings: 0 to 100 scale, 0 no effect, 100 complete control
Procedure, shortened: (§2)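 In this greenhouse assay, treated and untreated plants were kept for approximately 14 to 21 days following postemergence application, then rated by eye on a scale from 0 (no effect) to 100 (complete control).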

[9] = test system: giant foxtail; assay: Test C postemergence giant foxtail; assay type: in vivo, Setaria faberii; settings: 0 to 100 scale, 0 no effect, 100 complete control
Procedure, shortened: as §2

[10] = test system: dallisgrass; assay: Test D dallisgrass; assay type: in vivo, Paspalum dilatatum; settings: Postemergence, 0 to 100 scale
[11] = test system: guineagrass; assay: Test D guineagrass; assay type: in vivo, Panicum maximum; settings: Postemergence, 0 to 100 scale
[12] = test system: sourgrass; assay: Test D sourgrass; assay type: in vivo, Trichachne insularis; settings: Postemergence, 0 to 100 scale
[13] = test system: surinam grass; assay: Test D surinam grass; assay type: in vivo, Brachiaria decumbens; settings: Postemergence, 0 to 100 scale
[14] = test system: Green foxtail; assay: Test D green foxtail; assay type: in vivo; settings: Postemergence, 0 to 100 scale, 0 no injury, 100 complete control
[15] = Rate 250 g/ha, 0 to 100 scale (0 no effect, 100 complete control)
[16] = Rate 500 g/ha, 0 to 100 scale, 0 no effect, 100 complete control
[17] = Rate 125 g/ha, 0 to 100 scale (0 no effect, 100 complete control)
[18] = Rate 500 g/ha, 0 to 100 scale where 0 is no effect and 100 is complete control
[19] = Rate 250 g/ha, 0 to 100 scale where 0 is no effect and 100 is complete control
[20] = Rate 16 g/ha, 0 no injury, 100 complete control
[21] = Rate 32 g/ha, 0 no injury, 100 complete control
[22] = Rate 64 g/ha, 0 no injury, 100 complete control
[23] = Rate 125 g/ha, 0 no injury, 100 complete control

## CC(C)N(C(=O)n1oc(=O)n(C(C)C)c1=O)c1ccc(Cl)cc1 [Compound 114]
[1]; Rate 125 g/ha, 0 to 100 scale
  Plant response rating, Blackgrass: 0
[1]; [15]
  Plant response rating, Blackgrass: 20
[1]; [16]
  Plant response rating, Blackgrass: 65
[2]; Rate 125 g/ha, 0 to 100 scale
  Plant response rating, Deadnettle: 20
[2]; [15]
  Plant response rating, Deadnettle: 10
[2]; [16]
  Plant response rating, Deadnettle: 70
[3]; Rate 125 g/ha, 0 to 100 scale
  Plant response rating, Field violet: 0
[3]; [15]
  Plant response rating, Field violet: 0
[3]; [16]
  Plant response rating, Field violet: 15
[4]; Rate 125 g/ha, 0 to 100 scale
  Plant response rating, Spring Wheat: 10
[4]; [15]
  Plant response rating, Spring Wheat: 20
[4]; [16]
  Plant response rating, Spring Wheat: 30
[5]; [17]
  Plant response rating, Blk nightshade: 20
[5]; Rate 250 g/ha, 0 to 100 scale
  Plant response rating, Blk nightshade: 60
[5]; [18]
  Plant response rating, Blk nightshade: 90
[6]; [17]
  Plant response rating, Rape: 0
[6]; Rate 250 g/ha, 0 to 100 scale
  Plant response rating, Rape: 20
[6]; [18]
  Plant response rating, Rape: 50
[7]; [17]
  Plant response rating, Sugar beet: 20
[7]; Rate 250 g/ha, 0 to 100 scale
  Plant response rating, Sugar beet: 40
[7]; [18]
  Plant response rating, Sugar beet: 50

## CCn1c(=O)on(C(=O)N(c2ccccc2)C(C)C)c1=O [Compound 117]
[8]; Rate 140 g/ha
  Plant response rating E. blacknightsh: 0
[8]; Rate 280 g/ha
  Plant response rating E. blacknightsh: 0
[8]; Rate 560 g/ha
  Plant response rating E. blacknightsh: 70
[8]; Rate 1120 g/ha
  Plant response rating E. blacknightsh: 80
[9]; Rate 140 g/ha
  Plant response rating, Giant foxtail: 0
[9]; Rate 280 g/ha
  Plant response rating, Giant foxtail: 60
[9]; Rate 560 g/ha
  Plant response rating, Giant foxtail: 75
[9]; Rate 1120 g/ha
  Plant response rating, Giant foxtail: 80

## CC(C)N(C(=O)n1oc(=O)n(C(C)C)c1=O)c1ccc(F)cc1 [Compound 131]
[8]; Rate 140 g/ha
  Plant response rating E. blacknightsh: 0
[8]; Rate 280 g/ha
  Plant response rating E. blacknightsh: 10
[8]; Rate 560 g/ha
  Plant response rating E. blacknightsh: 50
[8]; Rate 1120 g/ha
  Plant response rating E. blacknightsh: 80
[9]; Rate 140 g/ha
  Plant response rating, Giant foxtail: 10
[9]; Rate 280 g/ha
  Plant response rating, Giant foxtail: 40
[9]; Rate 560 g/ha
  Plant response rating, Giant foxtail: 60
[9]; Rate 1120 g/ha
  Plant response rating, Giant foxtail: 80
[1]; Rate 62 g/ha, 0 to 100 scale
  Plant response rating, Blackgrass: 85
[1]; Rate 125 g/ha, 0 to 100 scale
  Plant response rating, Blackgrass: 20
[1]; [16]
  Plant response rating, Blackgrass: 75
[1]; [19]
  Blackgrass plant response rating: 60
[2]; Rate 62 g/ha, 0 to 100 scale
  Plant response rating, Deadnettle: 30
[2]; Rate 125 g/ha, 0 to 100 scale
  Plant response rating, Deadnettle: 30
[2]; [16]
  Plant response rating, Deadnettle: 50
[2]; [19]
  Deadnettle plant response rating: 30
[3]; Rate 62 g/ha, 0 to 100 scale
  Plant response rating, Field violet: 60
[3]; Rate 125 g/ha, 0 to 100 scale
  Plant response rating, Field violet: 0
[3]; [16]
  Plant response rating, Field violet: 0
[3]; [19]
  Field violet plant response rating: 0
[4]; Rate 62 g/ha, 0 to 100 scale
  Plant response rating, Spring Wheat: 5
[4]; Rate 125 g/ha, 0 to 100 scale
  Plant response rating, Spring Wheat: 0
[4]; [16]
  Plant response rating, Spring Wheat: 40
[4]; [19]
  Spring Wheat plant response rating: 0
[10]; [20]
  Plant response rating, Dallisgrass: 20
[10]; [21]
  Plant response rating, Dallisgrass: 60
[10]; [22]
  Plant response rating, Dallisgrass: 100
[10]; [23]
  Plant response rating, Dallisgrass: 100
[10]; Rate 250 g/ha
  Plant response rating, Dallisgrass: 100
[11]; [20]
  Plant response rating, Guineagrass: 0
[11]; [21]
  Plant response rating, Guineagrass: 20
[11]; [22]
  Plant response rating, Guineagrass: 100
[11]; [23]
  Plant response rating, Guineagrass: 100
[11]; Rate 250 g/ha
  Plant response rating, Guineagrass: 100
[12]; [23]
  Sourgrass plant response rating: 50
[12]; Rate 250 g/ha
  Plant response rating, Sourgrass: —80
[13]; [20]
  Plant response rating, Surinam grass: 0
[13]; [21]
  Plant response rating, Surinam grass: 40
[13]; [22]
  Surinam grass plant response rating: 60
[13]; [23]
  Surinam grass plant response rating: 100
[13]; Rate 250 g/ha
  Plant response rating, Surinam grass: 100
[5]; [17]
  Plant response rating, Blk nightshade: 70
[5]; Rate 250 g/ha
  Blk nightshade plant response rating (0 to 100 scale): 85
[5]; [18]
  Plant response rating, Blk nightshade: 90
[6]; [17]
  Plant response rating, Rape: 70
[6]; Rate 250 g/ha
  Rape plant response rating (0 to 100 scale): 75
[6]; [18]
  Plant response rating, Rape: 90
[7]; [17]
  Plant response rating, Sugar beet: 80
[7]; Rate 250 g/ha
  Sugar beet plant response rating (0 to 100 scale): 60
[7]; [18]
  Plant response rating, Sugar beet: 90
[14]; Rate 16 g/ha
  Plant response rating, Green foxtail: 0
[14]; Rate 32 g/ha
  Plant response rating, Green foxtail: 60
